Earlier results in patent publication US20040132104A1, “Vitamin D assay” (priority 2003, published 2004).

Target: T1, Vitamin D binding protein (Homo sapiens, UniProt P02774)
T1 sequence (P02774 17-474): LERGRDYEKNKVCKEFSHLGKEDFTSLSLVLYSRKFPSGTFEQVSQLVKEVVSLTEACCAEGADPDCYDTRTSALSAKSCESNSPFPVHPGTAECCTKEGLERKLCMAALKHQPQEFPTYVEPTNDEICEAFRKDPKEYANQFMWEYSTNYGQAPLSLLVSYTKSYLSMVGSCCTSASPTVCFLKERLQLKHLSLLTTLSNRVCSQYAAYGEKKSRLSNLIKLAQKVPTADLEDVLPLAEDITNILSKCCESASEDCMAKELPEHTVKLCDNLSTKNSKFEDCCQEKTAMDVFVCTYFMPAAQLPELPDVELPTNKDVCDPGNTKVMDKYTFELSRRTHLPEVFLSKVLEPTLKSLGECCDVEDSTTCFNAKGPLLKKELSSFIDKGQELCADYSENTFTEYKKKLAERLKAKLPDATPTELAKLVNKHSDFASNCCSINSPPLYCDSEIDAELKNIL
Conditions: Vitamin D binding protein affinity for 25-OH Vitamin D

In the case of 25-hydroxy-vitamin D [25-OH Vitamin D], the affinity is listed as 5e+08 M⁻¹.
